From publication PMC6627868 (Marine Drugs, 2019)

Experiments:
[1] = simulated intestinal fluid, pH 6.5
[2] = simulated gastric fluid, pH 1.8
[3] = pH 6.5

With `CC[C@H](C)[C@@H]1NC(=O)[C@@H]2CCCN2C(=O)[C@H](CO)NC(=O)[C@H](CCSC)NC(=O)[C@H](C)NC(=O)[C@H](CO)NC(=O)[C@@H]2CSSC[C@H](NC(=O)CN)C(=O)N[C@@H](CSSC[C@@H](C(N)=O)NC1=O)C(=O)N[C@@H](CO)C(=O)N[C@@H](Cc1cnc[nH]1)C(=O)N1CCC[C@H]1C(=O)N[C@@H](C(C)C)C(=O)N2` [TxID, α-Conotoxin TxID] as the molecule, how does the remaining at 0.5 h [1] read?
The remaining at 0.5 h was 36.3 ± 2%.

What about the remaining at 48 h [2] of the same molecule?
The remaining at 48 h was 65.2 ± 2%.

And the “remaining amount in SIF after 2 h” value [3]?
The value was 5.8 ± 2.0%.
